# Source: PubChem BioAssay (NCI)
#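 Protocol summary: plate cells (96-well), add compound at 5 concentrations, incubate 48 h, interpolate endpoints linearly. TGI: total growth inhibition.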
# What was measured:
# Assay in all cases: growth of human tumour cells (NCI), 48 h
# [1] = tested on: 786-0 renal
# [2] = tested on: A498 renal
# [3] = tested on: A549 NSCLC
# [4] = tested on: ACHN renal
# [5] = tested on: BT-549 breast
# [6] = tested on: CAKI-1 renal
# [7] = tested on: CCRF-CEM leukemia
# [8] = tested on: COLO 205 colon
# [9] = tested on: DU-145 prostate
# [10] = tested on: EKVX NSCLC
# [11] = tested on: HCC-2998 colon
# [12] = tested on: HCT-116 colon
# [13] = tested on: HCT-15 colon
# [14] = tested on: HL-60(TB) leukemia
# [15] = tested on: HOP-62 NSCLC
# [16] = tested on: HOP-92 NSCLC
# [17] = tested on: HS 578T breast
# [18] = tested on: HT29 colon
# [19] = tested on: IGROV1 ovarian
# [20] = tested on: K-562 leukemia
# [21] = tested on: KM12 colon
# [22] = tested on: LOX IMVI melanoma
# [23] = tested on: M14 melanoma
# [24] = tested on: MALME-3M melanoma
# [25] = tested on: MCF7 breast
# [26] = tested on: MDA-MB-231 breast
# [27] = tested on: MDA-MB-435
# [28] = tested on: MDA-N
# [29] = tested on: MOLT-4 leukemia
# [30] = tested on: NCI-H226 lung
# [31] = tested on: NCI-H23 lung
# [32] = tested on: NCI-H460 lung
# [33] = tested on: NCI-H522 lung
# [34] = tested on: NCI/ADR-RES ovarian
# [35] = tested on: OVCAR-3 ovarian
# [36] = tested on: OVCAR-4 ovarian
# [37] = tested on: OVCAR-5 ovarian
# [38] = tested on: OVCAR-8 ovarian
# [39] = tested on: PC-3 prostate
# [40] = tested on: RPMI-8226 leukemia
# [41] = tested on: RXF 393 renal
# [42] = tested on: SF-268 CNS
# [43] = tested on: SF-295 CNS
# [44] = tested on: SF-539 CNS
# [45] = tested on: SK-MEL-2 melanoma
# [46] = tested on: SK-MEL-28 melanoma
# [47] = tested on: SK-MEL-5 melanoma
# [48] = tested on: SK-OV-3 ovarian
# [49] = tested on: SN12C renal
# [50] = tested on: SNB-19 CNS
# [51] = tested on: SNB-75 CNS
# [52] = tested on: SR leukemia
# [53] = tested on: SW-620 colon
# [54] = tested on: T-47D breast
# [55] = tested on: TK-10 renal
# [56] = tested on: U251 CNS
# [57] = tested on: UACC-257 melanoma
# [58] = tested on: UACC-62 melanoma
# [59] = tested on: UO-31 renal
structure (smiles),measurement,setting,value
COc1cc(C2c3cc4c(cc3OC(N3CCCC3)C2C)OCO4)cc(OC)c1O (stereo unspecified),TGI,[1],59.5 µM
same,TGI,[2],56.9 µM
same,TGI,[3],> 100 µM
same,TGI,[4],> 100 µM
same,TGI,[5],53.2 µM
same,TGI,[6],> 95.1 µM
same,TGI,[7],> 100 µM
same,TGI,[8],63 µM
same,TGI,[9],> 90 µM
same,TGI,[10],> 80.7 µM
same,TGI,[11],> 94.3 µM
same,TGI,[12],> 100 µM
same,TGI,[13],> 100 µM
same,TGI,[14],> 92.7 µM
same,TGI,[15],56.7 µM
same,TGI,[16],> 78.5 µM
same,TGI,[17],37.4 µM
same,TGI,[18],> 87.7 µM
same,TGI,[19],> 100 µM
same,TGI,[20],> 95.7 µM
same,TGI,[21],> 100 µM
same,TGI,[22],> 100 µM
same,TGI,[23],> 51.1 µM
same,TGI,[24],> 66 µM
same,TGI,[25],> 100 µM
same,TGI,[26],> 93.3 µM
same,TGI,[27],15.2 µM
same,TGI,[28],6.17 µM
same,TGI,[29],> 100 µM
same,TGI,[30],80.9 µM
same,TGI,[31],> 82.1 µM
same,TGI,[32],> 100 µM
same,TGI,[33],19.1 µM
same,TGI,[34],37 µM
same,TGI,[35],> 65.5 µM
same,TGI,[36],> 100 µM
same,TGI,[37],> 100 µM
same,TGI,[38],> 100 µM
same,TGI,[39],> 80.6 µM
same,TGI,[40],> 100 µM
same,TGI,[41],> 42.7 µM
same,TGI,[42],> 100 µM
same,TGI,[43],22.3 µM
same,TGI,[44],41.2 µM
same,TGI,[45],> 85.9 µM
same,TGI,[46],> 100 µM
same,TGI,[47],40.5 µM
same,TGI,[48],62.4 µM
same,TGI,[49],> 83.7 µM
same,TGI,[50],38.9 µM
same,TGI,[51],24.5 µM
same,TGI,[52],> 100 µM
same,TGI,[53],> 100 µM
same,TGI,[54],> 100 µM
same,TGI,[55],58.6 µM
same,TGI,[56],42.6 µM
same,TGI,[57],> 100 µM
same,TGI,[58],> 61.6 µM
same,TGI,[59],> 100 µM
CCC(=O)NC(Nc1cccc(F)c1C)(C(F)(F)F)C(F)(F)F,TGI,[1],> 100 µM
same,TGI,[2],> 100 µM
same,TGI,[3],> 100 µM
same,TGI,[4],> 100 µM
same,TGI,[5],> 100 µM
same,TGI,[6],> 100 µM
same,TGI,[7],> 100 µM
same,TGI,[8],> 100 µM
same,TGI,[9],> 100 µM
same,TGI,[10],> 100 µM
same,TGI,[11],> 100 µM
same,TGI,[12],> 100 µM
same,TGI,[13],> 100 µM
same,TGI,[14],> 100 µM
same,TGI,[15],> 100 µM
same,TGI,[16],> 100 µM
same,TGI,[17],> 100 µM
same,TGI,[18],> 100 µM
same,TGI,[19],> 100 µM
same,TGI,[20],> 100 µM
same,TGI,[21],> 100 µM
same,TGI,[22],> 100 µM
same,TGI,[23],> 100 µM
same,TGI,[24],> 100 µM
same,TGI,[25],> 100 µM
same,TGI,[26],> 100 µM
same,TGI,[27],> 100 µM
same,TGI,[28],> 100 µM
same,TGI,[29],> 100 µM
same,TGI,[30],> 100 µM
same,TGI,[31],> 100 µM
same,TGI,[32],> 100 µM
same,TGI,[33],> 100 µM
same,TGI,[34],> 100 µM
same,TGI,[35],> 100 µM
same,TGI,[37],> 100 µM
same,TGI,[38],> 100 µM
same,TGI,[39],> 100 µM
same,TGI,[40],> 100 µM
same,TGI,[41],80.7 µM
same,TGI,[42],> 100 µM
same,TGI,[43],> 100 µM
same,TGI,[44],> 100 µM
same,TGI,[45],> 100 µM
same,TGI,[46],> 100 µM
same,TGI,[47],> 100 µM
same,TGI,[48],> 100 µM
same,TGI,[50],> 100 µM
same,TGI,[51],> 100 µM
same,TGI,[52],> 100 µM
same,TGI,[53],> 100 µM
same,TGI,[54],> 100 µM
same,TGI,[55],> 100 µM
same,TGI,[56],> 100 µM
same,TGI,[57],> 100 µM
same,TGI,[58],> 100 µM
same,TGI,[59],> 100 µM
